This series has as its target DGAT2. To be noted: ASO.

“And” between values parts separate entries of the source, which are not always exact repeats. Identical values can stand only once. After the bases stand the sugars from the 5' end (letter, count) and the backbone: PS all phosphorothioate, else s phosphorothioate and o phosphodiester by linkage. Methylation of C is not given here. e = 2'-O-(2-methoxyethyl) (MOE); d = 2'-deoxy (DNA)

For the sequence “TTAAGCTTTGTGACCTTGGG (sugars e5 d10 e5, PS)”, the target mRNA inhibition (HepG2, 0.12 µM) came to 67%. Turning to “CTTAAGGCAAAGTAACATAC (sugars e5 d10 e5, PS)”, the target mRNA inhibition is, setting by setting: (HepG2, 2.5 µM) 48% and 57%; (HepG2, 10 µM) 75% and 96%. As to “GCAGGACCCCGGAGTAGGCG (sugars e5 d10 e5, PS)”, the target mRNA inhibition (HepG2, 0.12 µM) is 58%. Same read-out and setting: the same measure for “CTTTTAAATAACCCACAGAC (sugars e5 d10 e5, PS)”: 0%. Take “CACAGTTAAAGTGTGGTACA (sugars e5 d10 e5, PS)”: the target mRNA inhibition was 52% (HepG2, 2.5 µM) and 88% (HepG2, 10 µM). “GTCAGCAGGTTGTGTGTCTT (sugars e2 d13 e5, PS)”: the target mRNA inhibition (HepG2, 0.12 µM) amounted to 58%.

The sequence “GGCACAGAAAAGTGAGGCTT (sugars e5 d10 e5, PS)” had a target mRNA inhibition (HepG2, 0.12 µM) of 32%. As for “GTCACTGACTCACAACAGCA (sugars e5 d10 e5, PS)”, the target mRNA inhibition by setting is: (HepG2, 2.5 µM) 58%; (HepG2, 10 µM) 92%.

Under “HepG2, 0.12 µM”, “TGATAGCATTGCCACTCCCA (sugars e3 d14 e3, PS)” returned a target mRNA inhibition of 66%. Consider “GTTGCCATCATACTAGACTA (sugars e5 d10 e5, PS)”, for which the target mRNA inhibition (HepG2, 2.5 µM) turned out to be 65% and the target mRNA inhibition (HepG2, 10 µM) worked out at 85%. Turning to “GCTCTCATTTCTTATCTTCA (sugars e5 d10 e5, PS)”, the target mRNA inhibition reads like this: (HepG2, 2.5 µM) 82% and 80%; (HepG2, 10 µM) 95% and 93%. Turning to “GCAGTCTGCCTGATTCCCTT (sugars e5 d10 e5, PS)”, the target mRNA inhibition was 60% (HepG2, 2.5 µM) and 93% (HepG2, 10 µM). In the case of “GGCATGGAGCTCAGAGACTC (sugars e3 d14 e3, PS)”, under “HepG2, 0.12 µM”, the target mRNA inhibition came to 74%.

“TAAGGGTATTCTGCTCATAA (sugars e5 d10 e5, PS)”: the target mRNA inhibition runs as follows: (HepG2, 2.5 µM) 63%; (HepG2, 10 µM) 93%. With “AGGTTGTGTGTCTTCACCAG (sugars e2 d13 e5, PS)”, for the setting “HepG2, 0.12 µM”, the target mRNA inhibition is 61%. For “ACCAGGGCCTCCATGTACAT (sugars e5 d10 e5, PS)”, the target mRNA inhibition (HepG2, 2.5 µM) came out at 30%; the target mRNA inhibition (HepG2, 10 µM) was 32% and 50%; the target mRNA inhibition (HepG2, 20 µM) was 48%. Consider “TCTTGCCAGGCATGGAGCTC (sugars e5 d10 e5, PS)”, for which the target mRNA inhibition (HepG2, 0.12 µM) came to 47%.

Take “ACCCACTGGAGCACTGAGAT (sugars e5 d10 e5, PS)”: the target mRNA inhibition (HepG2, 0.12 µM) turned out to be 72%.

Take “CAGGGCCTCCATGTACATGG (sugars e5 d10 e5, PS)”: the target mRNA inhibition (HepG2, 0.12 µM) stood at 37%. Take “AGGTAGAGTTCTATTGCTTC (sugars e5 d10 e5, PS)”: the target mRNA inhibition by setting is: (HepG2, 2.5 µM) 81%; (HepG2, 10 µM) 88% and 92%.

As for “GCACCTGTTACTACATGTCT (sugars e5 d10 e5, PS)”, the target mRNA inhibition is, setting by setting: (HepG2, 2.5 µM) 87% and 78%; (HepG2, 10 µM) 92% and 84%. With “GGCACCTGTTACTACATGTC (sugars e5 d10 e5, PS)”, the target mRNA inhibition is 80% and 75% (HepG2, 2.5 µM); 94% and 89% (HepG2, 10 µM).

For “TTTCCTTTGAAATCCAATGC (sugars e5 d10 e5, PS)”, the target mRNA inhibition is, setting by setting: (HepG2, 2.5 µM) 69%; (HepG2, 10 µM) 90%. For “TCAGCAGGTTGTGTGTCTTC (sugars e3 d14 e3, PS)”, where the note is “HepG2, 0.12 µM”, the target mRNA inhibition stood at 54%. “CAGGACCCCGGAGTAGGCGG (sugars e3 d14 e3, PS)” registered a target mRNA inhibition (HepG2, 0.12 µM) of 53%. With “TTCCTCATCTATACAGTGGG (sugars e5 d10 e5, PS)”, the target mRNA inhibition was 57% and 72% and 73% (HepG2, 2.5 µM); 89% and 82% and 92% (HepG2, 10 µM). Turning to “GGATAGTCGATTTACCAGAA (sugars e5 d10 e5, PS)”, the target mRNA inhibition by setting is: (HepG2, 2.5 µM) 69%; (HepG2, 10 µM) 85%.

Under “HepG2, 0.12 µM”, “TGGATGGGAAAGTAGTCTCG (sugars e5 d10 e5, PS)” showed a target mRNA inhibition of 40%. As for “AGCTGTGATGACTTCCCAGG (sugars e5 d10 e5, PS)”, the target mRNA inhibition by setting is: (HepG2, 2.5 µM) 52%; (HepG2, 10 µM) 91%. For “TGAGGCCAAGGACAGAGGTT (sugars e5 d10 e5, PS)”, the target mRNA inhibition by setting is: (HepG2, 2.5 µM) 59%; (HepG2, 10 µM) 85%. Turning to “CATCACATGCTTATCCTTGA (sugars e5 d10 e5, PS)”, the target mRNA inhibition (HepG2, 0.12 µM) was 41%. Consider “TGGCCCTGTGCTCTGTGGGC (sugars e5 d10 e5, PS)”, for which, where the note is “HepG2, 10 µM”, the target mRNA inhibition was 35% and 33%. With “CTCTGCTTCTTGGGCATCTG (sugars e5 d10 e5, PS)”, the target mRNA inhibition reads like this: (HepG2, 2.5 µM) 78% and 70%; (HepG2, 10 µM) 90% and 85%. As for “AGGACCCCGGAGTAGGCGGC (sugars e3 d14 e3, PS)”, the target mRNA inhibition (HepG2, 0.12 µM) is 76%. With “GCAATGCCAATGCCTAGGTC (sugars e5 d10 e5, PS)”, the target mRNA inhibition is, setting by setting: (HepG2, 2.5 µM) 87% and 89%; (HepG2, 10 µM) 82% and 91%.

On to “TAAGGAAAACTTAGGCATGC (sugars e5 d10 e5, PS)”, for which the target mRNA inhibition reads like this: (HepG2, 2.5 µM) 75%; (HepG2, 10 µM) 69%.

Regarding “GGATACTCAGAAGAGCAGTG (sugars e5 d10 e5, PS)”, the target mRNA inhibition runs as follows: (HepG2, 2.5 µM) 60%; (HepG2, 10 µM) 80%. “CCCACTGGAGCACTGAGATG (sugars e5 d10 e5, PS)” came in with a target mRNA inhibition (HepG2, 0.12 µM) of 78%.

For the origin of these results see the OligoGym collection.
